The results in this text go back to PubChem BioAssay (NCI).

Some test systems named below: HS 578T breast; PC-3 prostate; MDA-MB-435; DU-145 prostate; BT-549 breast; MCF7 breast.
Assay in all cases: NCI-60 cell line screen, 48 h

Values joined by “and” are separate entries in the source; they are usually repeats but may differ in a detail not shown here. Identical values can stand only once.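 Interpolation was linear, between the two tested concentrations surrounding the appropriate level; five concentrations were tested over 48 hours in 96-well plates. The concentration for 50% growth inhibition is given as GI50. TGI marks complete inhibition of growth.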

Consider `CC12CCC(O)CC1CCC1C2CCC2(C)C(C3=CC(=O)OC3)CCC12O` (stereo unspecified), for which the TGI is over 100 µM in the experiment with HS 578T breast; 13.1 µM with PC-3 prostate; 9.38 µM with MDA-MB-435; 2.85 µM in the experiment with DU-145 prostate; 4.53 µM in the experiment on BT-549 breast.
Turning to `CCCCCN(CCCCC)CC(O)c1cc(C)c2ccc3cc(C(C)C)ccc3c2c1` (stereo unspecified), the GI50 with MCF7 breast was 1.75 µM; in the experiment with HS 578T breast it was 1.93 µM; in the experiment on PC-3 prostate, 1.59 µM; in the experiment with MDA-MB-435, 1.72 µM; with DU-145 prostate, 1.89 µM; with BT-549 breast it was 1.85 µM. For the same compound, the TGI in the experiment with MCF7 breast amounted to 3.48 µM; with HS 578T breast it was 4.65 µM; in the experiment on PC-3 prostate, 3.08 µM; in the experiment with MDA-MB-435 it was 3.21 µM; in the experiment on DU-145 prostate, 3.37 µM; with BT-549 breast it was 3.51 µM.
On to `O=C(Nc1ccc(Cl)c(Cl)c1)Nc1ccc(Cl)c(Cl)c1`, for which the GI50 with MCF7 breast is 2.61 µM and 2.78 µM; in the experiment on HS 578T breast, 3.29 µM and 2.08 µM; in the experiment with PC-3 prostate, 2.82 µM and 1.78 µM; in the experiment with MDA-MB-435 it was 3.06 µM and 2.8 µM; with DU-145 prostate, 4.03 µM and 4.34 µM; in the experiment on BT-549 breast, 1.72 µM and 4.01 µM. The TGI in the experiment on MCF7 breast is 12 µM and 11.6 µM; in the experiment on HS 578T breast, 19.3 µM and 6.88 µM; with PC-3 prostate it was 12.3 µM and 9.82 µM; in the experiment on MDA-MB-435, 11.4 µM and 8.8 µM; in the experiment with DU-145 prostate, 14.4 µM and 16.2 µM; with BT-549 breast it was 5.96 µM and 31.6 µM.
For the compound `O=C(Nc1ccccc1OC(F)(F)F)Nc1n[nH]c2ccccc12`, the GI50 was 1.75 µM in the experiment on MCF7 breast; 19.4 µM in the experiment on HS 578T breast; 31.4 µM in the experiment on PC-3 prostate; 51.5 µM in the experiment on MDA-MB-435; 51.7 µM with DU-145 prostate; 76.4 µM in the experiment on BT-549 breast. The TGI in the experiment with MCF7 breast, in the experiment on HS 578T breast, in the experiment on PC-3 prostate, in the experiment with MDA-MB-435, in the experiment with DU-145 prostate and with BT-549 breast was over 100 µM throughout.
With `COc1ccc2c(C3=C(c4cn(C)c5ccccc45)C(=O)NC3=O)cn(C)c2c1`, the GI50 in the experiment on MCF7 breast was 0.0853 µM; in the experiment with HS 578T breast, 0.113 µM; in the experiment with PC-3 prostate, 0.0936 µM; in the experiment on DU-145 prostate it was 0.137 µM. Moreover, the TGI with MCF7 breast, in the experiment with HS 578T breast, in the experiment with PC-3 prostate, in the experiment on DU-145 prostate and with BT-549 breast was over 25 µM throughout.
Turning to `COc1ccc2c(c1)/C(=C/c1c(C)nc3sc(C)nn13)C(=O)N2`, the GI50 in the experiment on MCF7 breast was 1.61 µM; with HS 578T breast, 5.16 µM; in the experiment on PC-3 prostate it was 2.48 µM; in the experiment on DU-145 prostate it was 6.11 µM; in the experiment on BT-549 breast it was 5.69 µM. The TGI in the experiment on MCF7 breast is over 100 µM; with HS 578T breast, over 68.3 µM; in the experiment with PC-3 prostate, over 100 µM; with DU-145 prostate, over 100 µM; in the experiment with BT-549 breast, over 100 µM.
Regarding `CC1(C)CCc2c(c3c(c4c(=O)c(O)c(-c5ccc(O)cc5)oc24)OC(C)(C)CC3)O1`, the GI50 in the experiment with MCF7 breast is over 100 µM; in the experiment on HS 578T breast, 69.8 µM; in the experiment on PC-3 prostate, over 100 µM; in the experiment on MDA-MB-435 it was over 100 µM; in the experiment with DU-145 prostate, 85.1 µM. Further, the TGI in the experiment on MCF7 breast, with HS 578T breast, in the experiment on PC-3 prostate, with MDA-MB-435 and in the experiment on DU-145 prostate was over 100 µM throughout.
For `CCC(CO)Nc1nc2ccc(Cl)cc2c2ccccc12` (stereo unspecified), the GI50 is 12.2 µM in the experiment on MCF7 breast; 8.82 µM in the experiment on HS 578T breast; 10.3 µM with PC-3 prostate; 6.14 µM with MDA-MB-435; 12.8 µM with DU-145 prostate; 10.1 µM in the experiment with BT-549 breast. The TGI with MCF7 breast stood at 26.1 µM; in the experiment with HS 578T breast, 34.9 µM; in the experiment with PC-3 prostate, 24.9 µM; in the experiment on MDA-MB-435, 18.8 µM; in the experiment on DU-145 prostate, 25.4 µM; in the experiment on BT-549 breast, 21.7 µM.
As to `COc1cc(Cc2cnc(/N=C3\C(=O)N(CN4CCN(c5c(F)cc6c(=O)c(C(=O)O)cn(C7CC7)c6c5OC)CC4C)c4ccc(F)cc43)nc2N)cc(OC)c1OC` (stereo unspecified), the GI50 in the experiment on MCF7 breast is 8.35 µM; with HS 578T breast, 23.6 µM; with PC-3 prostate it was 13 µM; in the experiment on MDA-MB-435, 14.2 µM; with BT-549 breast, 19.7 µM. For the same compound, the TGI in the experiment on MCF7 breast came to 52.8 µM; in the experiment with HS 578T breast it was 82.5 µM; with PC-3 prostate, 25.7 µM; in the experiment with MDA-MB-435, 32.9 µM; in the experiment on BT-549 breast it was 49.2 µM.
On to `Cc1ccc2c(=O)cc(-c3ccc(F)cc3)[nH]c2n1`, for which the TGI with MCF7 breast is over 100 µM; in the experiment with HS 578T breast it was over 100 µM; in the experiment with PC-3 prostate, 88.1 µM; in the experiment with MDA-MB-435 it was 22.2 µM; in the experiment on DU-145 prostate it was over 100 µM; in the experiment with BT-549 breast, over 100 µM. The GI50 was 20.9 µM in the experiment on PC-3 prostate and 5.87 µM with MDA-MB-435.
With `O=C1C=C(Cl)C(=O)C(c2ccc(Cl)cc2)=C1`, the TGI in the experiment with MCF7 breast turned out to be 41.6 µM; with HS 578T breast it was 74.9 µM; in the experiment with PC-3 prostate, 29.3 µM; with MDA-MB-435, 46.6 µM; with DU-145 prostate it was 46.5 µM; in the experiment with BT-549 breast it was 46 µM.
On to `O=S(=O)(NC1=NCCN1C(=S)SN1CCn2c1nsc2=S)c1ccc(OC(F)(F)F)cc1`, for which the GI50 in the experiment with MCF7 breast was 4.52 µM; with HS 578T breast, 4.83 µM; in the experiment on PC-3 prostate, 13.1 µM; in the experiment on MDA-MB-435, 4.47 µM; in the experiment with DU-145 prostate, 2.69 µM. Moreover, the TGI in the experiment on MCF7 breast worked out at 25.2 µM; with HS 578T breast, 33.1 µM; in the experiment on PC-3 prostate, 37.2 µM; with MDA-MB-435, 24.5 µM; in the experiment on DU-145 prostate, 12.1 µM.
Regarding `c1ccc2cc(-c3cc(-c4cc(-c5ccc6ccccc6c5)on4)no3)ccc2c1`, the TGI in the experiment with MCF7 breast, with HS 578T breast, in the experiment with PC-3 prostate, in the experiment with MDA-MB-435, in the experiment with DU-145 prostate and in the experiment with BT-549 breast was over 100 µM throughout.
Turning to `Cc1ccc(NC2=C(Cl)C(=O)N(Cc3ccccc3)C2=O)cc1O`, the GI50 in the experiment with MCF7 breast was 32.2 µM; in the experiment with HS 578T breast, 25.9 µM; in the experiment on PC-3 prostate, 32.5 µM; with MDA-MB-435 it was 29 µM; in the experiment with DU-145 prostate it was 60.1 µM. The TGI is over 100 µM in the experiment on MCF7 breast; 83.4 µM in the experiment on HS 578T breast; over 100 µM in the experiment on PC-3 prostate; over 100 µM in the experiment on MDA-MB-435; over 100 µM in the experiment on DU-145 prostate.
Regarding `COc1cc(/C=N/NC(=O)c2ccc(C(F)(F)F)nc2Nc2ccc(Cl)cc2C)ccc1O`, the GI50 in the experiment with MCF7 breast was 2.02 µM; in the experiment on HS 578T breast, 3.53 µM; with PC-3 prostate, 1.89 µM; in the experiment on MDA-MB-435, 3.08 µM; with DU-145 prostate, 4.27 µM; in the experiment with BT-549 breast it was 1.34 µM. Moreover, the TGI amounted to 11.6 µM with MCF7 breast; 16.5 µM with HS 578T breast; 9.87 µM in the experiment on PC-3 prostate; 11 µM with MDA-MB-435; 16.3 µM with DU-145 prostate; 9.69 µM with BT-549 breast.
As to `Cn1c2ccccc2c2c(Nc3ccccc3)c3ccccc3nc21`, the GI50 in the experiment with MCF7 breast is 5.29 µM; with HS 578T breast, 18.2 µM; with PC-3 prostate, 11.7 µM; in the experiment on MDA-MB-435 it was 2.7 µM; with DU-145 prostate, 9.35 µM; in the experiment with BT-549 breast, 21.3 µM. Also, the TGI in the experiment on MCF7 breast amounted to 25.4 µM; in the experiment on HS 578T breast, 60 µM; with PC-3 prostate, 48.1 µM; in the experiment on MDA-MB-435 it was 6.85 µM; in the experiment with DU-145 prostate it was 50.4 µM; in the experiment with BT-549 breast, 47.8 µM.
In the case of `CCCCCN(CCCCC)CCCNc1c2c(nc3ccc(Cl)cc13)CCCC2`, the GI50 was 2.46 µM in the experiment on MCF7 breast; 2.46 µM in the experiment on PC-3 prostate; 2.23 µM in the experiment with MDA-MB-435; 3.71 µM in the experiment with DU-145 prostate; 11.2 µM in the experiment with BT-549 breast. For the same compound, the TGI stood at 8.34 µM in the experiment with MCF7 breast; 8.9 µM in the experiment with PC-3 prostate; 6.56 µM with MDA-MB-435; 13.4 µM with DU-145 prostate; 23.4 µM with BT-549 breast.
Take `CC/C=C\CCC/C=C1/C(=O)C=C[C@@H]1C/C=C\CCCC(=O)OC`: the GI50 is 2.69 µM in the experiment with MCF7 breast; 10.6 µM with HS 578T breast; 3.14 µM in the experiment with PC-3 prostate; 2.49 µM in the experiment with MDA-MB-435; 8.67 µM in the experiment on DU-145 prostate. Moreover, the TGI in the experiment on MCF7 breast amounted to 13.9 µM; in the experiment on HS 578T breast it was 53.3 µM; in the experiment with PC-3 prostate, 8.11 µM; in the experiment on MDA-MB-435, 6.39 µM; in the experiment with DU-145 prostate, 21.1 µM.
Regarding `CC1=C(C(=O)Nc2ccc(Cl)c(Cl)c2)C(c2cccc(Oc3ccccc3)c2)NC(=S)N1` (stereo unspecified), the GI50 in the experiment on HS 578T breast is 5.03 µM; in the experiment with PC-3 prostate, 9.71 µM; in the experiment on MDA-MB-435, 7.55 µM; in the experiment on DU-145 prostate, 6.88 µM; with BT-549 breast, 5.94 µM. Also, the TGI in the experiment on HS 578T breast turned out to be 13.5 µM; with PC-3 prostate, 29.1 µM; in the experiment with MDA-MB-435, 14.2 µM; in the experiment with DU-145 prostate, 13.3 µM; in the experiment with BT-549 breast, 12.5 µM.
For `NC(Cc1c[nH]c2c(O)cccc12)C(=O)O` (stereo unspecified), the GI50 in the experiment on MCF7 breast, in the experiment on PC-3 prostate, with MDA-MB-435, with DU-145 prostate and with BT-549 breast was over 100 µM in each case. Besides, the TGI with MCF7 breast, in the experiment with PC-3 prostate, in the experiment with MDA-MB-435, in the experiment on DU-145 prostate and with BT-549 breast was over 100 µM in each case.
